According to patent US12209087B2, “AKT1 modulators” (Alterome Therapeutics, Inc., priority 2022, dated 2025):

Target: T1, full length AKT E17K (Homo sapiens, UniProt P31749, E17K)
T1 construct: host or cells: HEK-293 (ATCC CRL-1573)
Assay: NanoBRET Target Engagement (TE) Assay
Type: cell-based
Settings: competitive displacement of tracer in cells, read-out: AKT1 E17K IC50
Method in brief: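 Compound and tracer incubated 2 h before luminescence at donor 450 nm and acceptor 600 nm, with extracellular signal inhibited. EC50 by sigmoidal variable-slope regression.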

T1 sequence (P31749 whole entry E17K): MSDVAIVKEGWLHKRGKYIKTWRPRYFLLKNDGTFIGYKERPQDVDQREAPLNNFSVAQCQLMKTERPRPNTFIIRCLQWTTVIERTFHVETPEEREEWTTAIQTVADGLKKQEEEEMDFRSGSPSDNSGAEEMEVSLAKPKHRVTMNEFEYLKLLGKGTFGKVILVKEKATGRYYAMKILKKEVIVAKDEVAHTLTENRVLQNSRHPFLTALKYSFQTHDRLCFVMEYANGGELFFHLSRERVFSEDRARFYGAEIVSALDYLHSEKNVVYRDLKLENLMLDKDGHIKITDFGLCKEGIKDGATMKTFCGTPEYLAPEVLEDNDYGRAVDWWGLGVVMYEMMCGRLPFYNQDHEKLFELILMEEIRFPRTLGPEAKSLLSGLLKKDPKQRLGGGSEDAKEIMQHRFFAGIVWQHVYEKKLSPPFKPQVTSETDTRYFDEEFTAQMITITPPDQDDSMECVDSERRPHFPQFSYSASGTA

SMILES | IC50 [nM]
N#Cc1ccnc(NC2CCN(Cc3ccc(-n4c(-c5cccnc5N)nc5ccc(-c6cccc(F)c6)nc54)cc3)CC2)n1 [Example 358, 2-((1-(4-(2-(2-Aminopyridin-3-yl)-5-(3-fluorophenyl)-3H-imidazo[4,5-b]pyridin-3-yl)benzyl)piperidin-4-yl)amino)pyrimidine-4-carbonitrile] | 15 to 60
Cn1ccc(-c2ccc3nc(-c4cccnc4N)n(-c4ccc(CN5CCC(Nc6ccnc(C#N)n6)CC5)cc4)c3n2)cc1=O [Example 359, 4-((1-(4-(2-(2-aminopyridin-3-yl)-5-(1-methyl-2-oxo-1,2-dihydropyridin-4-yl)-3H-imidazo[4,5-b]pyridin-3-yl)benzyl)piperidin-4-yl)amino)pyrimidine-2-carbonitrile] | < 15
Cn1ccc(-c2ccc3nc(-c4cccnc4N)n(-c4ccc(CN5CCC(Nc6nccc(C#N)n6)CC5)cc4)c3n2)cc1=O [Example 360, 2-((1-(4-(2-(2-Aminopyridin-3-yl)-5-(1-methyl-2-oxo-1,2-dihydropyridin-4-yl)-3H-imidazo[4,5-b]pyridin-3-yl)benzyl)piperidin-4-yl)amino)pyrimidine-4-carbonitrile] | 60 to 600
N#Cc1nccc(N2CC3(CCN(Cc4ccc(-n5c(-c6cccnc6N)nc6ccc(-c7ccccc7)nc65)cc4)CC3)C2)n1 [Example 361, 4-(7-(4-(2-(2-Aminopyridin-3-yl)-5-phenyl-3H-imidazo[4,5-b]pyridin-3-yl)benzyl)-2,7-diazaspiro[3.5]nonan-2-yl)pyrimidine-2-carbonitrile] | < 15
N#Cc1nccc(NC2CC3(CCN(Cc4ccc(-n5c(-c6cccnc6N)nc6ccc(-c7ccccc7)nc65)cc4)CC3)C2)n1 [Example 362, 4-((7-(4-(2-(2-Aminopyridin-3-yl)-5-phenyl-3H-imidazo[4,5-b]pyridin-3-yl)benzyl)-7-azaspiro[3.5]nonan-2-yl)amino)pyrimidine-2-carbonitrile] | < 15
N#Cc1ncnc(N2CCC3(CCN(Cc4ccc(-n5c(-c6cccnc6N)nc6ccc(-c7ccccc7)nc65)cc4)CC3)C2)n1 [Example 363, 4-(8-(4-(2-(2-Aminopyridin-3-yl)-5-phenyl-3H-imidazo[4,5-b]pyridin-3-yl)benzyl)-2,8-diazaspiro[4.5]decan-2-yl)-1,3,5-triazine-2-carbonitrile] | 15 to 60
N#Cc1nccc(N2CCC3(CCN(Cc4ccc(-n5c(-c6cccnc6N)nc6ccc(-c7ccccc7)nc65)cc4)CC3)CC2)n1 [Example 364, 4-(9-(4-(2-(2-Aminopyridin-3-yl)-5-phenyl-3H-imidazo[4,5-b]pyridin-3-yl)benzyl)-3,9-diazaspiro[5.5]undecan-3-yl)pyrimidine-2-carbonitrile] | 15 to 60
N#Cc1ncnc(N2CCC3(CCN(Cc4ccc(-n5c(-c6cccnc6N)nc6ccc(-c7ccccc7)nc65)cc4)CC3)CC2)n1 [Example 365, 4-(9-(4-(2-(2-Aminopyridin-3-yl)-5-phenyl-3H-imidazo[4,5-b]pyridin-3-yl)benzyl)-3,9-diazaspiro[5.5]undecan-3-yl)-1,3,5-triazine-2-carbonitrile] | 15 to 60
N#Cc1nccc(N2CC3(CN(Cc4ccc(-n5c(-c6cccnc6N)nc6ccc(-c7ccccc7)nc65)cc4)C3)C2)n1 [Example 366, 4-(6-(4-(2-(2-Aminopyridin-3-yl)-5-phenyl-3H-imidazo[4,5-b]pyridin-3-yl)benzyl)-2,6-diazaspiro[3.3]heptan-2-yl)pyrimidine-2-carbonitrile] | < 15
N#Cc1nccc(N2C[C@@H]3CN(Cc4ccc(-n5c(-c6cccnc6N)nc6ccc(-c7ccccc7)nc65)cc4)C[C@H]3C2)n1 [Example 367, 4-((3aS,6aS)-5-(4-(2-(2-aminopyridin-3-yl)-5-phenyl-3H-imidazo[4,5-b]pyridin-3-yl)benzyl)hexahydropyrrolo[3,4-c]pyrrol-2(1H)-yl)pyrimidine-2-carbonitrile] | < 15
N#Cc1ncnc(N2CCN(Cc3ccc(-n4c(-c5cccnc5N)nc5ccc(-c6ccc(F)cc6)nc54)cc3)CC2)n1 [Example 368, 4-(4-(4-(2-(2-Aminopyridin-3-yl)-5-(4-fluorophenyl)-3H-imidazo[4,5-b]pyridin-3-yl)benzyl)piperazin-1-yl)-1,3,5-triazine-2-carbonitrile] | < 15
N#Cc1ncnc(N2CCN(Cc3ccc(-n4c(-c5cccnc5N)nc5ccc(-c6ccc(Cl)cc6)nc54)cc3)CC2)n1 [Example 369, 4-(4-(4-(2-(2-Aminopyridin-3-yl)-5-(4-chlorophenyl)-3H-imidazo[4,5-b]pyridin-3-yl)benzyl)piperazin-1-yl)-1,3,5-triazine-2-carbonitrile] | 15 to 60
N#Cc1nccc(NC2CCN(Cc3ccc(-n4c(-c5cccnc5N)nc5ccc(-c6ccc(F)cc6)nc54)cc3)CC2)n1 [Example 370, 4-((1-(4-(2-(2-Aminopyridin-3-yl)-5-(4-fluorophenyl)-3H-imidazo[4,5-b]pyridin-3-yl)benzyl)piperidin-4-yl)amino)pyrimidine-2-carbonitrile] | < 15
N#Cc1ccnc(NC2CCN(Cc3ccc(-n4c(-c5cccnc5N)nc5ccc(-c6ccc(Cl)cc6)nc54)cc3)CC2)n1 [Example 371, 2-((1-(4-(2-(2-Aminopyridin-3-yl)-5-(4-chlorophenyl)-3H-imidazo[4,5-b]pyridin-3-yl)benzyl)piperidin-4-yl)amino)pyrimidine-4-carbonitrile] | 60 to 600
N#Cc1ccnc(NC2CCN(Cc3ccc(-n4c(-c5cccnc5N)nc5ccc(-c6cccc(Cl)c6)nc54)cc3)CC2)n1 [Example 372, 2-((1-(4-(2-(2-Aminopyridin-3-yl)-5-(3-chlorophenyl)-3H-imidazo[4,5-b]pyridin-3-yl)benzyl)piperidin-4-yl)amino)pyrimidine-4-carbonitrile] | 15 to 60
N#Cc1cc(NC2CCN(Cc3ccc(-n4c(-c5cccnc5N)nc5ccc(-c6cccc(Cl)c6)nc54)cc3)CC2)ncn1 [Example 373, 6-((1-(4-(2-(2-Aminopyridin-3-yl)-5-(3-chlorophenyl)-3H-imidazo[4,5-b]pyridin-3-yl)benzyl)piperidin-4-yl)amino)pyrimidine-4-carbonitrile] | 15 to 60

Other lines, results leading:

IC50 [nM] | SMILES
15 to 60 | N#Cc1cc(N2CCN(Cc3ccc(-n4c(-c5cccnc5N)nc5ccc(-c6cccc(Cl)c6)nc54)cc3)CC2)ncn1 [Example 374, 6-(4-(4-(2-(2-Aminopyridin-3-yl)-5-(3-chlorophenyl)-3H-imidazo[4,5-b]pyridin-3-yl)benzyl)piperazin-1-yl)pyrimidine-4-carbonitrile]
15 to 60 | N#Cc1nccc(N2C[C@@H]3C[C@H]2CN3Cc2ccc(-n3c(-c4cccnc4N)nc4ccc(-c5ccccc5)nc43)cc2)n1 [Example 375, 4-((1S,4S)-5-(4-(2-(2-Aminopyridin-3-yl)-5-phenyl-3H-imidazo[4,5-b]pyridin-3-yl)benzyl)-2,5-diazabicyclo[2.2.1]heptan-2-yl)pyrimidine-2-carbonitrile]
60 to 600 | N#Cc1cc(N2C[C@@H]3C[C@H]2CN3Cc2ccc(-n3c(-c4cccnc4N)nc4ccc(-c5ccccc5)nc43)cc2)ncn1 [Example 376, 6-((1S,4S)-5-(4-(2-(2-Aminopyridin-3-yl)-5-phenyl-3H-imidazo[4,5-b]pyridin-3-yl)benzyl)-2,5-diazabicyclo[2.2.1]heptan-2-yl)pyrimidine-4-carbonitrile]
60 to 600 | N#Cc1ccnc(N2C[C@@H]3C[C@H]2CN3Cc2ccc(-n3c(-c4cccnc4N)nc4ccc(-c5ccccc5)nc43)cc2)n1 [Example 377, 2-((1S,4S)-5-(4-(2-(2-Aminopyridin-3-yl)-5-phenyl-3H-imidazo[4,5-b]pyridin-3-yl)benzyl)-2,5-diazabicyclo[2.2.1]heptan-2-yl)pyrimidine-4-carbonitrile]
60 to 600 | C[C@@H]1CN(Cc2ccc(-n3c(-c4cccnc4N)nc4ccc(-c5ccccc5)nc43)cc2)C[C@H](C)N1c1ccnc(C#N)n1 [Example 378, 4-((2S,6R)-4-(4-(2-(2-Aminopyridin-3-yl)-5-phenyl-3H-imidazo[4,5-b]pyridin-3-yl)benzyl)-2,6-dimethylpiperazin-1-yl)pyrimidine-2-carbonitrile]
600 to 10000 | C[C@@H]1CN(Cc2ccc(-n3c(-c4cccnc4N)nc4ccc(-c5ccccc5)nc43)cc2)C[C@H](C)N1c1nccc(C#N)n1 [Example 379, 2-((2S,6R)-4-(4-(2-(2-Aminopyridin-3-yl)-5-phenyl-3H-imidazo[4,5-b]pyridin-3-yl)benzyl)-2,6-dimethylpiperazin-1-yl)pyrimidine-4-carbonitrile]
600 to 10000 | C[C@@H]1CN(Cc2ccc(-n3c(-c4cccnc4N)nc4ccc(-c5ccccc5)nc43)cc2)C[C@H](C)N1c1cc(C#N)ncn1 [Example 380, 6-((2S,6R)-4-(4-(2-(2-Aminopyridin-3-yl)-5-phenyl-3H-imidazo[4,5-b]pyridin-3-yl)benzyl)-2,6-dimethylpiperazin-1-yl)pyrimidine-4-carbonitrile]
< 15 | N#Cc1nccc(NC2CCN(Cc3ccc(-n4c(-c5cccnc5N)nc5ccc(-c6ccc[nH]c6=O)nc54)cc3)CC2)n1 [Example 381, 4-((1-(4-(2-(2-Aminopyridin-3-yl)-5-(2-oxo-1,2-dihydropyridin-3-yl)-3H-imidazo[4,5-b]pyridin-3-yl)benzyl)piperidin-4-yl)amino)pyrimidine-2-carbonitrile]
15 to 60 | N#Cc1ncnc(NC2CCN(Cc3ccc(-n4c(-c5cccnc5N)nc5ccc(-c6ccc(Cl)cc6)nc54)cc3)CC2)n1 [Example 382, 4-((1-(4-(2-(2-Aminopyridin-3-yl)-5-(4-chlorophenyl)-3H-imidazo[4,5-b]pyridin-3-yl)benzyl)piperidin-4-yl)amino)-1,3,5-triazine-2-carbonitrile]
< 15 | N#Cc1nccc(N2CCN(Cc3ccc(-n4c(-c5cccnc5N)nc5ccc(-c6cnccc6C#N)nc54)cc3)CC2)n1 [Example 383, 4-(4-(4-(2-(2-Aminopyridin-3-yl)-5-(4-cyanopyridin-3-yl)-3H-imidazo[4,5-b]pyridin-3-yl)benzyl)piperazin-1-yl)pyrimidine-2-carbonitrile]
